In general, pKi refers to the Ki on a negative log10 scale, so that one unit is a factor of ten. Low values mean a high Ki, high ones a low Ki.

pKi: −log10 of the molar value.

This passage reports Ki results from EP0900211B1 (PHARMACIA & UPJOHN COMPANY, priority 1996, dated 1997).

The target in the experiment is Stromelysin (Homo sapiens, UniProt P08254). Nature of the experiment: MMP inhibition, particle concentration fluorescence assay. Particulars: in vitro; fluorescein/biotin substrate; MMP buffer pH 7.5; room temperature. The experiment is classed as biochemical.
Sequence of Stromelysin (P08254 100-477): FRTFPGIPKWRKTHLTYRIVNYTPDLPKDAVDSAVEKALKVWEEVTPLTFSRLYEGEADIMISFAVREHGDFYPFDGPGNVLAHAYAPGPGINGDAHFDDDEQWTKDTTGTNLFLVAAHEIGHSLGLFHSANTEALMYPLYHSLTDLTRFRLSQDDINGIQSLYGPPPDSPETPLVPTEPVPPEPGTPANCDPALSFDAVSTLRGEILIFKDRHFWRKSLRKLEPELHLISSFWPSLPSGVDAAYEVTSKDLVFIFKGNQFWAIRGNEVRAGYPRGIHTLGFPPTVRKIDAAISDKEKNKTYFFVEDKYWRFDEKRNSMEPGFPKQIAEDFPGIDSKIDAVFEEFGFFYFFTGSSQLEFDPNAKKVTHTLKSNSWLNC

Procedure: Inhibitory activity is evaluated in one or more of the MMP enzymes (stromelysin, gelatinase, and collagenase) in vitro using particle concentration fluorescence assay. An inhibitor binds to MMP enzymes which prevents the degradation of a substrate by stromelysin, gelatinase, or collagenase. The substrate has attached to it a fluorescein and a biotin moiety. The intact substrate then binds to an avidin-coated particle via the biotin moiety. Once the particle is washed and dried, a fluorescent signal is generated since the fluorescent group is attached to the particle. Without an inhibitor present, the substrate is degraded by MMP enzymes and the fluorescein group is removed, therefore, no fluorescent signal can be detected. Testing compounds are dissolved in DMSO to the desired concentration, then the solutions are diluted to 1:5 with MMP buffer (50 mM Tris-HCl, pH 7.5; 150 mM NaCl; 0.02% NaN3). Serial two-fold dilutions of each compound are prepared. A concentrated, activated enzyme solution is transferred into each plate of the testing compounds, and the mixture is incubated at room temperature for 15 minutes. […] At this point, the substrate mixture is mixed with 0.1% avidin-coated polystyrene particles. After 15 minutes, the fluorescence values are measured following filtration and washing of the beads. Ki values are then calculated.

In turn, `COC(=O)[C@@H](NC(=O)Nc1n[nH]c(=S)s1)c1ccccc1` [Example 24, (S)-N-[[(4,5-Dihydro-5-thioxo-1,3,4-thiadiazol-2-yl)amino]carbonyl]-2-phenylglycine methyl ester] gave a pKi of 5.12.

Molecule `O=C(Nc1n[nH]c(=S)s1)N[C@@H](Cc1ccccc1)C(=O)NCCN1CCOCC1` [Example 19, α-[[[(4,5-Dihydro-5-thioxo-1,3,4-thiadiazol-2-yl)amino]carbonyl]-amino]-N-[2-(4-morpholinyl)ethyl]-(S)-benzenepropanamide] had a pKi of 5.70.

For `COC(=O)[C@@H](NC(=O)Nc1n[nH]c(=S)s1)[C@@H](C)OC(C)(C)C` [Example 74], the pKi is 5.73.

`O=C(Nc1n[nH]c(=S)s1)N[C@@H](Cc1ccccc1)C(=O)NCc1cccc2ccccc12` [Example 58, α-[[[(4,5-Dihydro-5-thioxo-1,3,4-thiadiazol-2-yl)amino]carbonyl]amino)-N-(1-naphthylmethyl)-(S)-benzenepropanamide] had a pKi of 6.10.

`COC(=O)[C@H](Cc1ccc(C(C)(C)C)cc1)NC(=O)Nc1n[nH]c(=S)s1` [Example 80, N-[[(4,5-Dihydro-5-thioxo-1,3,4-thiadiazol-2-yl)amino]carbonyl]-4-(1,1-dimethylethyl)-L-phenylalanine methyl ester] had a pKi of 6.10.

`COC(=O)[C@H](Cc1ccc(-c2ccccc2)cc1)NC(=O)Nc1n[nH]c(=S)s1` [Example 78, α-[[[(4,5-Dihydro-5-thioxo-1,3,4-thiadiazol-2-yl)amino]carbonyl]amino]-(S)-(1,1'-biphenyl)-4-propanoic acid methyl ester] gave a pKi of 5.52.

As to `CNC(=O)CCNC(=O)[C@H](Cc1ccccc1)NC(=O)Nc1n[nH]c(=S)s1` [Example 43], the pKi was 5.87.

As for `COC(=O)[C@H](Cc1ccc(N)cc1)NC(=O)Nc1n[nH]c(=S)s1` [Example 59, N-[[(4,5-Dihydro-5-thioxo-1,3,4-thiadiazol-2-yl)amino]carbonyl]-L-(4-aminophenyl)alanine methyl ester], the pKi was 5.53.

`COC(=O)[C@H](CO[Si](C)(C)C(C)(C)C)NC(=O)Nc1n[nH]c(=S)s1` [Example 45, N-[[(4,5-Dihydro-5-thioxo-1,3,4-thiadiazol-2-yl)amino]carbonyl]-O-[(1,1-dimethylethyl)dimethylsilyl]-L-serine methyl ester] gave a pKi of 5.82.

For `O=C(Nc1n[nH]c(=S)s1)N[C@@H](Cc1ccccc1)C(=O)NCc1ccc2c(c1)OCO2` [Example 49, α-[[[(4,5-Dihydro-5-thioxo-1,3,4-thiadiazol-2-yl)amino]-carbonyl]amino]-N-(piperonyl)-(S)-benzenepropanamide], the pKi was 6.00.

`O=C(Nc1n[nH]c(=S)s1)N[C@@H](Cc1ccccc1)C(=O)NCc1cccnc1` [Example 18, α-[[[(4,5-Dihydro-5-thioxo-1,3,4-thiadiazol-2-yl)amino]carbonyl]-amino]-N-(3-pyridinylmethyl)-(S)-benzenepropanamide] gave a pKi of 5.70.

As for `CC(C)C[C@H](NC(=O)Nc1n[nH]c(=S)s1)C(=O)NCCc1ccccc1` [Example 28, 2-[[[(4,5-Dihydro-5-thioxo-1,3,4-thiadiazol-2-yl)amino]-carbonyl]amino]-4-methyl-N-(2-phenylethyl)-(S)-pentanamide], the pKi is 5.46.

Take `CC(C)C[C@H](NC(=O)Nc1n[nH]c(=S)s1)C(=O)NCc1ccccc1` [Example 29, 2-[[[(4,5-Dihydro-5-thioxo-1,3,4-thiadiazol-2-yl)amino]carbonyl]amino]-4-methyl-N-(phenylmethyl)-(S)-pentanamide]: the negative-log Ki (pKi) is 5.35.

`O=C(Nc1n[nH]c(=S)s1)N[C@@H](Cc1ccccc1)C(=O)NCc1nc2ccccc2[nH]1` [Example 57, N-(1H-Benzimidazol-2-ylmethyl)-α-[[[(4,5-dihydro-5-thioxo-1,3,4-thiadiazol-2-yl)amino]carbonyl]amino]-(S)-benzenepropanamide] had a pKi of 6.19.
